Experiments:
[1] = system: non-opiate medication-related constipation; test: Case Example 2: cetilistat for constipation related to amitriptyline (non-opiate medication); type: in vivo, human
Method: A person with fibromyalgia being treated with the tricyclic antidepressant, amitriptyline, suffered from a global pain disorder requiring pain management. They were of average weight, not over-weight. They were treated with amitriptyline that is a known therapeutic agent for mild to moderate fibromyalgia. This tricyclic antidepressant is also known for causing dry mouth, blurry vision and constipation.

[2] = system: constipation related to menstrual cycle; test: Case Example 6: cetilistat for constipation related to menstrual cycle; type: in vivo, human; settings: cetilistat 60 mg oral once a day with food, as needed
Text: This is a case of a person who complained of recurring constipation related to their menstrual cycle. They noticed that a few days before the onset of their menstrual cycle and for the week of their menstrual cycle they develop constipation that aggravates their bloating and abdominal pain. They are not overweight. They have tried over-the-counter laxatives and tried some standard prescription laxatives that caused them to feel more bloated. […] Their doctor gave them a prescription of cetilistat (one 60 mg oral pill once a day with food) to be taken one to three days before the onset of their menstruation. In the fourth week of their period, they noticed normalization of their bowel movement and required to take the cetilistat only as needed. Often they only need to take it three times during their menstrual cycle. […] Typically, they required the cetilistat 3-7 days per cycle. […] Further, the cetilistat may be used as needed as a medication for constipation.

[3] = system: lazy bowel and age-related constipation; test: Case Example 3: cetilistat for constipation in person (non-opiate medications, dehydration, lazy bowel); type: in vivo, human; settings: cetilistat 60 mg twice daily
Text: Person living in a nursing home with mild dementia complained of painful bowel movements causing an anal fissure with bleeding in their rectum. The cause of their constipation was deemed to be due to a combination of non-opiate medications, dehydration, and a lazy bowel. The patient also complained of abdominal distention and some intermittent abdominal discomfort. The patient was not overweight. […] They had abdominal pain with conventional bowel stimulants. […] The cetilistat resolved the constipation in an acute case and allowed for long-term recovery from a constipation-related complication. Further, it was effective in the treatment of lazy bowel and age-related constipation.

[4] = system: constipation related to deconditioning/bedridden; test: Case Example 8: orlistat for constipation related to being bedridden; type: in vivo, human
Method: His stools and bowel function gradually became more regular allowing for a reduction of dose of the orlistat (to one 120 mg oral pill twice per day with food) as maintenance.

[5] = system: paralytic bowel, chronic constipation; test: Case Example 5: orlistat for paralytic bowel after spinal cord transection; type: in vivo, human; settings: orlistat 120 mg three times a day with food
Text: A person of average weight (not overweight) suffered a thoracic spinal injury with transection of the spinal cord resulting in complete paralysis below the third thoracic vertebrae. They went on to develop full paralysis of their muscles below T-3 including the skeletal muscles and smooth muscles of the gut. They developed a paralytic bowel contributing to chronic constipation with overflow and diarrhea. They required regular manual disempaction and Fleet enemas to manage their chronic constipation. The patient was given orlistat (120 mg one pill three times a day with food) by their doctor.

[6] = system: constipation related to dehydration, post-gastroenteritis; test: Case Example 4: orlistat for constipation related to post-infection and dehydration; type: in vivo, human
Method: A person travelled to Mexico and while there developed acute gastroenteritis. The patient was of average weight (not overweight). They began experiencing vomiting and diarrhea while there. They became dehydrated and eventually was transferred to their home in Canada. The virus had cleared one day after arriving back in Canada. They began eating and drinking but had developed constipation related to post-infection and dehydration. They were given orlistat (120 mg orally once daily with food) by their doctor for one week and this resolved their constipation within 24 hours. […] The improvement was such that after seven days that when they stopped the medication (orlistat), they were able to return to their normal diet.

[7] = system: opiate-related constipation
[8] = system: fibromyalgia, irritable bowel syndrome, chronic abdominal pain; test: Case Example 9: orlistat in fibromyalgia patient with irritable bowel syndrome; type: in vivo, human
Text: This case involves a person with a 15 year history of fibromyalgia. The person reported chronic pain involving the neck, lower back, migraine headaches, abdominal bloating, and constipation with occasional diarrhea. They had been diagnosed with fibromyalgia about 10 years prior, and had chronic abdominal pain, bloating and a formal diagnosis of irritable bowel syndrome. […] Serology, abdominal x-rays, ultrasound of the abdomen and pelvis, were normal. […] There were no masses or any signs of acute surgical abdomen. They were taking Lyrica™ 75 mg twice a day, Flexeril™ 10 mg twice a day as needed, Percocet™ 2 twice a day as needed, and Celebrex™ 200 mg once a day. They were given orlistat (120 mg, twice a day as needed to take with food), and they noted that their constipation resolved, their bloating resolved, their occasional diarrhea resolved, and their abdominal pain resolved.

[9] = system: chronic constipation after bowel resection/colostomy; test: Case Example 7: orlistat for constipation after partial bowel resection with colostomy; type: in vivo, human
Text: person suffering from bowel cancer was given a partial bowel resection with a colostomy and bag. They complained that since their bowel surgery they suffered chronic constipation and hard stools. […] It would sometimes be so hard it could injure and cause bleeding to the ostomy site.

[10] = system: irritable bowel syndrome and heartburn; test: Case Example 11: orlistat in person with irritable bowel syndrome and heartburn; type: in vivo, human; settings: orlistat 120 mg, one per day on average
Text: This example relates to a person with a 20 year history of irritable bowel syndrome and heartburn. The person reported chronic abdominal pain with bloating, occasional constipation or diarrhea, and epigastric discomfort for over 20 years. They had four colonoscopies over that period of time, and 2 endoscopies of the stomach. […] They also had ultrasounds of the abdomen and pelvis which were normal. They had 2 chest x-rays and an MRI of the abdomen, each of which were normal. They were taking Losec™ for their heartburn which was controlled. They were also taking low dose Atenolol™ for their blood pressure as they had developed some minor hypertension. They were otherwise well. […] There were no masses, rebound or rigidity. There were no organs that were tender or enlarged. They complained of persistent heartburn despite being on Losec™ and abdominal pain. They were treated with orlistat (120 mg, twice a day each with a meal to be reduced or increased as required up to three per day). They reported that they only required one per day on average and occasionally a second tablet. […] They became more flexible in their abdomen and lower back. They were more comfortable in their walking. Thus, orlistat was useful to treat IBD.

[11] = system: irritable bowel syndrome, chronic abdominal pain; test: Case Example 10: orlistat in person with irritable bowel syndrome; type: in vivo, human; settings: over 4 to 6 weeks
Text: This case involves a non-overweight person with a history of irritable bowel syndrome. The person reported chronic abdominal pain and bloating, minor occasional constipation, minor occasional diarrhea, and lower back pain for the past five years. They were otherwise well. They had 2 colonoscopies, and an ultrasound of the abdomen and pelvis, all of which were normal. They were also taking an oral dose of B12. They were on other medications as well. […] There was no rebound or rigidity. They had no enlargement of any organs. They had tenderness globally around their abdomen, tightness of the iliopsoas bilaterally and oblique muscles. Their bowels were tender, and they were chronically uncomfortable and in pain. They were treated with orlistat (120 mg, once or twice a day as needed with food). […] They felt generally better, and was able to stop taking vitamin B12 because the absorption of […] B12 improved with their improved bowel function. Thus, orlistat was useful to treat IBD.

[12] = orlistat 120 mg twice a day as needed with food
[13] = orlistat 120 mg once or twice a day

CCCCCCCCCCCCCCCCOc1nc2ccc(C)cc2c(=O)o1 [cetilistat] was tested, and the side effects reported ([1]; cetilistat 60 mg once per day, one year) was “no major side effects”, the “time to bowel movement” value ([1]; cetilistat 60 mg orally once per day with food, patient on amitriptyline) was ≤ 24 h and the “bowel movements on continued daily treatment” value ([1]; cetilistat one pill per day) was “regular bowel movements daily”. The “outcome after a year of amitriptyline and cetilistat” value ([1]; one year) was “good success with treatment of fibromyalgia and daily bowel movements”, the “relief of constipation on days of use” value [2] was “good relief of their constipation with regular, soft bowel movements” and the “abdominal bloating and abdominal pain” value [3] was “resolved”. The bowel movement regularity [3] was “regular bowel movements daily”, the “quality of the bowel movement” value [3] was “painless and soft” and the “anal fissure and rectal bleeding” value ([3]; over two weeks) was “the anal fissure had healed and the bleeding had stopped”.

In the case of CCCCCCCCCCC[C@@H](C[C@@H]1OC(=O)[C@H]1CCCCCC)OC(=O)[C@H](CC(C)C)NC=O [orlistat], the “stool and bowel movements” value ([4]; orlistat 120 mg once a day increased to three times per day with food, then twice per day as maintenance) is reported as “softening of their stool, and the formation of regular bowel movements daily”, the “need for Fleet enemas and disempaction” value ([4]; orlistat, maintenance 120 mg twice per day) is reported as “cessation of the Fleet enemas and the disempaction” and the bowel formation [5] is reported as “long-term improvement in bowel formation”. The bowel movements [5] was “soft and allowing for more regular, daily movements”, the “need for enemas and manual disempaction” value [5] was “significant reduction of therapeutic enemas and manual disempaction” and the “bowel movements after cessation” value ([6]; after stopping orlistat at seven days) was “continue to be normal”. For the same compound, the “bowel movements on treatment” value ([6]; orlistat 120 mg once daily) was “normal and regular”, the “time to resolution of constipation” value ([6]; orlistat 120 mg orally once daily with food for one week) was ≤ 24 h and the “time to noticed improvement of constipation” value ([7]; orlistat 120 mg BID orally with food, patient on MS Contin 60 mg BID) was ≤ 24 h. For the same compound, the “bowel movements within one week” value ([7]; orlistat 120 mg BID orally with food, within one week) was “daily bowel movements”, the “bowel movements over one year of treatment” value ([7]; orlistat 120 mg BID, one year) was “good well-formed bowel movements most days” and the side effects reported ([7]; orlistat 120 mg BID, one year) was “no major side effects”. For the same compound, the long-term outcome ([8]; combined medication for over two years) was “sustained good results”, the abdominal pain [8, 12] was “resolved” and the bloating [8, 12] was “resolved”. For the same compound, the occasional diarrhea [8, 12] was “resolved”, the overall fibromyalgia [8, 12] was “improvement in their overall fibromyalgia” and the constipation ([8]; orlistat 120 mg twice a day as needed with food, with Lyrica, Flexeril, Percocet, Celebrex) was “resolved”. For the same compound, the abdominal pain ([9]; orlistat 120 mg once daily) was “no longer had abdominal pain”, the bloating ([9]; orlistat 120 mg once daily) was “greatly improved” and the stool consistency ([9]; orlistat 120 mg once daily) was “softened their stool”. The “average bowel movement frequency” value ([9]; orlistat 120 mg orally once daily with food) was “once a day”, the bloating [10] was “great improvement of their bloating” and the “abdominal pain and heartburn” value ([10]; over 4 to 6 weeks) was “great improvement of their abdominal pain and heartburn”. For the same compound, the bloating ([11]; orlistat 120 mg once or twice a day as needed with food) was “reduced bloating”, the abdominal pain [11, 13] was “resolution of their abdominal pain” and the diarrhea [11, 13] was “no episodes of diarrhea”. For the same compound, the “muscles of abdomen and lower back” value [11, 13] was “relaxation of the muscles of their abdomen and lower back” and the “straining with bowel movements” value [11, 13] was “less straining with bowel movements”.

— patent US9616066B2, “Therapy for constipation” (priority 2012, dated 2017)
